The source of these data is patent publication US20150087673A1, “METHODS FOR USING AND BIOMARKERS FOR AMPK-ACTIVATING COMPOUNDS” (RIGEL PHARMACEUTICALS, INC., priority 2013, published 2015).

This test concerns AMPK. Nature of the test: AMPK activation assay (enzyme-linked immunosorbent assay). The class given is cell-based. The procedure, abridged: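 Activation by each compound is measured using a conventional commercial immunoassay kit.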
On to `CS(=O)(=O)c1ccc(C(=O)C2CCN(C(=O)c3ccc(C(=O)NC4CCN(Cc5ccc(C#N)cc5)CC4)nc3)CC2)cc1` [Compound 228, N-(1-(4-cyanobenzyl)piperidin-4-yl)-5-(4-(4-(methylsulfonyl)benzoyl)piperidine-1-carbonyl)picolinamide], for which the EC50 (in general, the concentration at which the effect is half-maximal) is less than 500 nM.

In turn, `COc1ccc(Oc2ccc(NC(=O)c3ccc(C(=O)N4CCN(Cc5ccc(F)cc5)CC4)cn3)cc2)cc1` [Compound 54, 5-(4-(4-fluorobenzyl)piperazine-1-carbonyl)-N-(4-(4-methoxyphenoxy)phenyl)picolinamide] showed an EC50 of less than 500 nM.

Regarding `C[S+]([O-])c1ccc(C(=O)C2CCN(C(=O)c3ccc(C(=O)NC4CC[N+]([O-])(Cc5ccc(C#N)cc5)CC4)nc3)CC2)cc1` (centres unmarked) [Compound 374, 1-(4-cyanobenzyl)-4-(5-(4-(4-(methylsulfinyl)benzoyl)piperidine-1-carbonyl)picolinamido)piperidine 1-oxide], the EC50 was more than 10000 nM.

In the case of `N#Cc1ccc(OC2CCN(C(=O)c3ccc(C(=O)NC4CCN(c5ccc(C#N)cc5)CC4)cn3)CC2)cc1` [Compound 418, 6-(4-(4-cyanophenoxy)piperidine-1-carbonyl)-N-(1-(4-cyanophenyl)piperidin-4-yl)nicotinamide], the half-maximal effective concentration (EC50) is less than 500 nM.

For `COc1ccc(OC2CCN(C(=O)c3ccc(C(=O)NC4CCN(Cc5ccc(C#N)cc5)CC4)cn3)CC2)c([N+](=O)[O-])c1` [Compound 378, N-(1-(4-cyanobenzyl)piperidin-4-yl)-6-(4-(4-methoxy-2-nitrophenoxy)piperidine-1-carbonyl)nicotinamide], the EC50 is less than 500 nM.

As to `COc1ccc(CN2CCC(NC(=O)c3ccc(C(=O)N4CCC(Oc5ccc(C#N)cc5)CC4)cn3)CC2)cc1` [Compound 162, 5-(4-(4-cyanophenoxy)piperidine-1-carbonyl)-N-(1-(4-methoxybenzyl)piperidin-4-yl)picolinamide], the EC50 is less than 500 nM.

As for `CS(=O)(=O)c1ccc(OC2CCN(C(=O)c3ccc(C(=O)NC4CCN(Cc5ccc(F)cc5)CC4)nc3)CC2)cc1` [Compound 226, N-(1-(4-fluorobenzyl)piperidin-4-yl)-5-(4-(4-(methylsulfonyl)phenoxy)piperidine-1-carbonyl)picolinamide], the EC50 was less than 500 nM.

Consider `CC(C)(C)OC(=O)NCC#Cc1cc(C(=O)N2CCN(Cc3ccc(F)cc3)CC2)cnc1C(=O)NC1CCN(Cc2ccc(C#N)cc2)CC1` [Compound 164, tert-butyl 3-(2-(1-(4-cyanobenzyl)piperidin-4-ylcarbamoyl)-5-(4-(4-fluorobenzyl)piperazine-1-carbonyl)pyridin-3-yl)prop-2-ynylcarbamate], for which the EC50 lay in the range of 500 to 1000 nM.

Turning to `COc1ccc(CN2CCC(NC(=O)c3ccc(C(=O)N4CCC(Oc5ccc(S(C)(=O)=O)cc5)CC4)nc3)CC2)cc1` [Compound 237, N-(1-(4-methoxybenzyl)piperidin-4-yl)-6-(4-(4-(methylsulfonyl)phenoxy)piperidine-1-carbonyl)nicotinamide], the EC50 lay in the range of 1000 to 5000 nM.

Turning to `CC(=O)c1ccc(Oc2ccc(NC(=O)c3ccc(C(=O)N4CCC(Oc5ccc(C(=O)N(C)C)cc5)CC4)nc3)cn2)cc1` [Compound 488, N-(6-(4-acetylphenoxy)pyridin-3-yl)-6-(4-(4-(dimethylcarbamoyl)phenoxy)piperidine-1-carbonyl)nicotinamide], the EC50 was less than 500 nM.

`N#Cc1ccc(CN2CCC(NC(=O)c3ccc(C(=O)N4CCCC(Cc5ccc(F)cc5)C4)cn3)CC2)cc1` (centres unmarked) [Compound 152, N-(1-(4-cyanobenzyl)piperidin-4-yl)-5-(3-(4-fluorobenzyl)piperidine-1-carbonyl)picolinamide] yielded an EC50 of less than 500 nM.

The molecule `COc1ccc(C(=O)C2CCN(C(=O)c3ccc(C(=O)NC4CCN(Cc5ccc(S(C)(=O)=O)cc5)CC4)cn3)CC2)cc1` [Compound 215, 6-(4-(4-methoxybenzoyl)piperidine-1-carbonyl)-N-(1-(4-(methylsulfonyl)benzyl)piperidin-4-yl)nicotinamide] showed an EC50 of more than 10000 nM.

The molecule `COc1ccc(C(=O)C2CCN(C(=O)c3ccc(C(=O)NC4CCN(Cc5ccc(N)cc5)CC4)cn3)CC2)cc1` [Compound 400, N-(1-(4-aminobenzyl)piperidin-4-yl)-6-(4-(4-methoxybenzoyl)piperidine-1-carbonyl)nicotinamide] yielded an EC50 of 1000 to 5000 nM.

Turning to `CC(=O)Nc1cccc(OC2CCN(C(=O)c3ccc(C(=O)NC4CCN(Cc5ccc(F)cc5)CC4)cn3)CC2)c1` [Compound 413, 6-(4-(3-acetamidophenoxy)piperidine-1-carbonyl)-N-(1-(4-fluorobenzyl)piperidin-4-yl)nicotinamide], the EC50 fell in the range of 1000 to 5000 nM.

Take `O=C(c1ccc(Nc2cccc(-c3ccccc3)c2)nc1)N1CCN(Cc2ccc(F)cc2)CC1` [Compound 33, (6-(3-phenylphenylamino)pyridin-3-yl)(4-(4-fluorobenzyl)piperazin-1-yl)methanone]: the EC50 fell in the range of 5000 to 10000 nM.

The molecule `O=C(NC1CCN(Cc2ccccc2)CC1)c1ccc(C(=O)NC2CCN(Cc3ccccc3)CC2)nc1` [Compound 264, N2,N5-bis(1-benzylpiperidin-4-yl)pyridine-2,5-dicarboxamide] registered an EC50 of 5000 to 10000 nM.

As to `CC(=O)c1ccc(Oc2ccc(NC(=O)c3ccc(C(=O)N4CCC(S(=O)(=O)c5ccc(F)cc5)CC4)nc3)cn2)cc1` [Compound 473, N-(6-(4-acetylphenoxy)pyridin-3-yl)-6-(4-(4-fluorophenylsulfonyl)piperidine-1-carbonyl)nicotinamide], the concentration giving a half-maximal response (EC50) was in the range of 1000 to 5000 nM.

`N#Cc1ccc(CN2CCC(NC(=O)c3ccc(C(=O)N4CCN(Cc5cc(F)cc(F)c5)CC4)cn3)CC2)cc1` [Compound 140, N-(1-(4-cyanobenzyl)piperidin-4-yl)-5-(4-(3,5-difluorobenzyl)piperazine-1-carbonyl)picolinamide] displayed an EC50 of less than 500 nM.

In the case of `N#Cc1ccc(Oc2ccc(NC(=O)c3ccc(C(=O)N4CCN(Cc5ccc(F)cc5)CC4)nc3)cn2)cc1` [Compound 476, N-(6-(4-cyanophenoxy)pyridin-3-yl)-6-(4-(4-fluorobenzyl)piperazine-1-carbonyl)nicotinamide], the concentration giving a half-maximal response (EC50) is less than 500 nM.

Molecule `N#Cc1ccc(CN2CCC(NC(=O)c3ccc(C(=O)N4CCC(C(=O)c5ccc(N6CCCC6)cc5)CC4)cn3)CC2)cc1` [Compound 365, N-(1-(4-cyanobenzyl)piperidin-4-yl)-5-(4-(4-(pyrrolidin-1-yl)benzoyl)piperidine-1-carbonyl)picolinamide] yielded a concentration giving a half-maximal response (EC50) of less than 500 nM.

`CC(C)(C)C(=O)N1CCN(C(=O)c2ccc(C(=O)NC3CCN(Cc4ccc(C#N)cc4)CC3)nc2)CC1` [Compound 81, N-(1-(4-cyanobenzyl)piperidin-4-yl)-5-(4-pivaloylpiperazine-1-carbonyl)picolinamide] came in with a half-maximal effective concentration (EC50) of 500 to 1000 nM.

`N#Cc1ccc(CN2CC[C@@H](NC(=O)c3ccc(C(=O)N4CCN(Cc5ccc(F)cc5)CC4)cn3)C2)cc1` [Compound 118, (R)-N-(1-(4-cyanobenzyl)pyrrolidin-3-yl)-5-(4-(4-fluorobenzyl)piperazine-1-carbonyl)picolinamide] came in with a 50% effective concentration (EC50) of less than 500 nM.

`N#Cc1ccc(CN2CCC3(CC2)CCN(c2ccc(C(=O)N4CCN(Cc5ccc(F)cc5)CC4)cn2)C3)cc1` [Compound 31, 4-((2-(5-(4-(4-fluorobenzyl)piperazine-1-carbonyl)pyridin-2-yl)-2,8-diazaspiro[4.5]decan-8-yl)methyl)benzonitrile]: the EC50 was less than 500 nM.

The molecule `N#Cc1ccc(CN2CCC(NC(=O)c3ccc(NC4CCN(c5ccc(C#N)cc5)CC4)cn3)CC2)cc1` [Compound 267, N-(1-(4-cyanobenzyl)piperidin-4-yl)-5-(1-(4-cyanophenyl)piperidin-4-ylamino)picolinamide] came in with an EC50 of less than 500 nM.

`COc1ccc(C(=O)C2CCN(C(=O)c3ccc(C(=O)NC4CCN(Cc5cccc(OC(F)(F)F)c5)CC4)cn3)CC2)cc1` [Compound 424, 6-(4-(4-methoxybenzoyl)piperidine-1-carbonyl)-N-(1-(3-(trifluoromethoxy)benzyl)piperidin-4-yl)nicotinamide] showed a half-maximal effective concentration (EC50) of less than 500 nM.

Take `COc1ccc(C(=O)C2CCN(C(=O)c3ccc(C(=O)N[C@@H]4CCN(Cc5ccc(C#N)c(F)c5)C[C@H]4F)cn3)CC2)cc1` (relative stereo) [Compound 354, N-((trans)-1-(4-cyano-3-fluorobenzyl)-3-fluoropiperidin-4-yl)-6-(4-(4-methoxybenzoyl)piperidine-1-carbonyl)nicotinamide]: the concentration for a half-maximal effect (EC50) was less than 500 nM.

For `COc1ccc(C(=O)C2CCN(c3ccc(C(=O)N4CCN(Cc5ccc(F)cc5)CC4)cn3)CC2)cc1` [Compound 189, (4-(4-fluorobenzyl)piperazin-1-yl)(6-(4-(4-methoxybenzoyl)piperidin-1-yl)pyridin-3-yl)methanone], the EC50 is 1000 to 5000 nM.

In turn, `CCS(=O)(=O)c1ccc(C(=O)C2CCN(C(=O)c3ccc(C(=O)NC4CCN(Cc5ccc(C#N)cc5)CC4)nc3)CC2)cc1` [Compound 260, N-(1-(4-cyanobenzyl)piperidin-4-yl)-5-(4-(4-(ethylsulfonyl)benzoyl)piperidine-1-carbonyl)picolinamide] gave an EC50 of less than 500 nM.

With `CC(=O)Nc1cccc(OC2CCN(C(=O)c3ccc(C(=O)Nc4ccc(Oc5ccc(F)cc5)nc4)cn3)CC2)c1` [Compound 414, 6-(4-(3-acetamidophenoxy)piperidine-1-carbonyl)-N-(6-(4-fluorophenoxy)pyridin-3-yl)nicotinamide], the concentration giving a half-maximal response (EC50) was in the range of 1000 to 5000 nM.

`O=C(NC1CCN(c2ccccc2)CC1)c1ccc(C(=O)N2CCN(Cc3ccc(F)cc3)CC2)cn1` [Compound 14, 5-(4-(4-fluorobenzyl)piperazine-1-carbonyl)-N-(1-(phenyl)piperidin-4-yl)picolinamide] registered an EC50 of 500 to 1000 nM.

Take `O=C(Nc1ccc(Oc2ccc(F)cc2)nc1)c1ccc(C(=O)N2CCC(C(=O)c3ccc(N4CCCC4)cc3)CC2)cn1` [Compound 368, N-(6-(4-fluorophenoxy)pyridin-3-yl)-5-(4-(4-(pyrrolidin-1-yl)benzoyl)piperidine-1-carbonyl)picolinamide]: the concentration for a half-maximal effect (EC50) is less than 500 nM.

For `NC(=O)c1ccc(CN2CCC(NC(=O)c3ccc(C(=O)N4CCN(Cc5ccc(F)cc5)CC4)cn3)CC2)cc1` [Compound 201, N-(1-(4-carbamoylbenzyl)piperidin-4-yl)-5-(4-(4-fluorobenzyl)piperazine-1-carbonyl)picolinamide], the half-maximal effective concentration (EC50) fell in the range of 500 to 1000 nM.
